From US20260098017A1, “NOVEL AROMATIC RING DERIVATIVE CONTAINING AMIDE SUBSTITUTION AND USE THEREOF” (TIANJIN PHARMACEUTICAL BIOTECHNOLOGY CO., LTD., priority 2022, published 2026)
Marks after values point to notes of the source that are not given here.

Tests used:
[1] = tested on: imiquimod-induced mouse psoriasis-like model; test: Imiquimod-induced mouse psoriasis-like model (PASI score); assay type: in vivo
From the text: The efficacy of the compounds according to the present invention in an imiquimod-induced mouse psoriasis-like model could be assessed using the following method:
Sample preparation: with reference to the preparation of commercially available Benvitimod cream. The compound (the compound of Example 3), the oil phase (hexadecanol, vaseline, liquid paraffin, and glyceryl mono- and distearate), the aqueous phase (propylene glycol, Tween 80, and water), and the appropriate additive (ethylparaben) were mixed, and subjected to vacuum emulsification to prepare a 1% cream sample.
A test site on the back of the animal was shaved to expose an area measuring of 2×3 cm^2. Imiquimod ointment was continuously applied to the back skin of the mice for 6 days to establish a mouse psoriasis model. From day 1 to day 6, various groups of animals were administered respectively according to the experimental protocol.
At day 7, the severity of skin inflammation was assessed and scored using a 5-point scale (0-4) (PASI score):
Skin thickness: 0: the skin was smooth without wrinkles; 1: the skin at the edge of the drug application area had slight wrinkles; 2: the skin in the drug application area all had slight wrinkles; 3: the degree of wrinkles in the drug application area was further deepened; and 4: on the basis of the score of 3, the mouse had the conditions of weight loss or poor state and the like. […]

SD rats = test: Four-week repeat-dose toxicity study in rats; assay type: in vivo; conditions: rat, 28 days, 2% cream 500 mg bid topical, 100 mg/kg
Description: Each group contained 10 animals, with an equal number of males and females.
The treatment lasted for four consecutive weeks (28 days).
• Daily clinical observation and body weight measurement; • After the last administration, rats were fasted for more than 16 h, anesthetized on the next day, and blood was collected from abdominal aorta. Tests such as hematology (EDTA-2K anticoagulation), blood biochemistry (serum), coagulation function (separated plasma with sodium citrate anticoagulation) and the like were respectively carried out; • After euthanization of the animals, the tissue organs were dissected and observed in general, and organ weights and coefficients (heart, liver, spleen, kidney, thymus) were determined; • The skin and lung tissues of the administration site were taken for HE staining to observe the changes in epidermal thickness, dermal inflammatory cells and pulmonary lesions.

[2] = tested on: mouse asthma model induced by OVA; test: Mouse asthma model induced by OVA: airway hyperresponsiveness (Penh); assay type: in vivo; conditions: for Enhanced pause (Penh) value: 2 mg/mL, 50 μL endotracheally, once daily for 3 days
Description: The efficacy of the compounds according to the present invention in a mouse asthma model induced by OVA could be assessed using the following method:
Test sample: the compound of Example 3 was weighed accurately, and dissolved in DMSO to prepare a solution at a concentration of 2 mg/mL.
30 female BALB/c mice were adaptively fed. After one week, 10 mice were randomly taken out and fed as a blank control group, and 20 mice were selected to establish the asthma model. The model mice were intraperitoneally injected with 0.2 mL of sensitizing solution for sensitization respectively on 0, 7 and 14 days. The sensitization solution contained 50 μg of OVA and 2 mg of Al(OH)3. The blank control group received an equivalent volume of physiological saline.
From day 21 to day 23 after sensitization, the mice in the model group and the administration group were subjected to nebulization stimulation with 5% OVA for 30 min, and the mice in the blank control group received nebulization with physiological saline for the same duration.
30 min before daily stimulation of the mice, 50 μl of physiological saline was administered endotracheally to mice in the blank control and model groups, and 50 μl of the corresponding drug was administered endotracheally to mice in the Example 3 compound group, once daily for 3 consecutive days.
Airway hyperresponsiveness was measured in each group of mice after the last stimulation. The mice were placed in a whole-body plethysmograph. After recording the baseline values of enhanced pause (Penh), the mice were stimulated by nebulized methacholine, wherein the concentrations of the methacholine were 0, 6.25 and 12.5 mg/mL from low to high, the nebulization volume was 100 μL per dose for 60 s.
Statistical analysis was conducted using SPSS software, Measurement data were expressed as mean±standard deviation. One Way ANOVA was used for inter-group comparisons, LSD test was used for those with homogeneous variance, and Dunnett-t test was used for those with heterogeneous variance. Differences were statistically significant with P<0.05.

JAK1 JH2 pseudokinase = JAK1 JH2 pseudokinase (Homo sapiens, UniProt P23458); test: JAK1 JH2 enzyme binding assay in vitro (TR-FRET); conditions: read-out: JAK 1 JH2 IC50
Chain of JAK1 JH2 pseudokinase (P23458 583-855 limits assumed): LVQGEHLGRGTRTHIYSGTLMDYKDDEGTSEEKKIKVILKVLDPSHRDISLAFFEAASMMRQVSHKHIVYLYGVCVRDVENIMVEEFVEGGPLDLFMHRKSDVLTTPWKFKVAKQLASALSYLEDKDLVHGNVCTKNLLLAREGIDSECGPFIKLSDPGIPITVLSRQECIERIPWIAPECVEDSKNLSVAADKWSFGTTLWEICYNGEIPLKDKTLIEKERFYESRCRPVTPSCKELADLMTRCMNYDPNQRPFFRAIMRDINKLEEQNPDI
Description: Instrumentation: Envision microplate reader (PerkinElmer), Echo (LABCYTE)
Method: in this experiment, the inhibitory effects of compounds on JAK1 JH2 pseudokinase was tested using time-resolved fluorescence resonance energy transfer (TR-FRET) method.
Procedure: compounds were prepared into 10 mM stock solutions using DMSO, which were further diluted into compound dilutions with different concentration gradients in DMSO, and the compound dilutions with 200× final concentration were transferred to a 384-well assay plate using an Echo instrument. The preparation of the following 1× assay working solution: HEPES pH7.5 at a final concentration of 20 mM, MgCl2 at a final concentration of 10 mM, Brij-35 at a final concentration of 0.015%, DTT at a final concentration of 2 mM, BSA at a final concentration of 50 ug/mL. JAK1 JH2 pseudokinase with 3× final concentration, Tb antibody and Tracer were prepared using their respective 1× working solution. 5 uL of JAK1 JH2 pseudokinase was added to a 384-well assay plate, and centrifuged at 1000 rpm for 30 s. 5 uL of Tb antibody was added to the 384-well assay plate, and centrifuged at 1000 rpm for 30 s. 5 uL of Tracer was added to the 384-well assay plate, and centrifuged at 1000 rpm for 30 s. Incubation was performed at room temperature for 60 min, and then at 4° C. overnight. Finally, the 495 nm/520 nm fluorescence signal ratio was measured using the Envision microplate reader (PerkinElmer).
Data Analysis: XLfit, a software developed by IDBS and integrated into the Microsoft Excel environment, was used to process and analyze the test data. […] Thereafter, the concentration and corresponding inhibition rate data were imported into the XLfit software, and the Dose Response One Site 205 model within the software was employed to fit the inhibition rate-concentration curve by four-parameter method, and the IC50 value of the compound was calculated.

## [2H]C([2H])([2H])NC(=O)c1nnc(NC(=O)C2CC2)cc1Nc1cccc(C(=O)Nc2cccc(C)c2)c1OC [Example 3]
[1]; day 7, 1% cream, 100 mg, topical, qd, day 1 to 6
  Percentage reduction in PASI score %: 40.7*** %
[1]; topical cream, compared with the model group
  Improvement of psoriasis symptoms: effectively improved psoriasis symptoms
SD rats
  Effects on general state, body weight, organ coefficient, skin and pulmonary pathology, and other hematological, coagulation and blood biochemical indicators: no significant effects
  Hematology Gran: 1.7 ± 1.0 ×10^9/L
  Hematology Lymph: 6.4 ± 2.7 ×10^9/L
  Hematology Mono: 0.2 ± 0.1 ×10^9/L
  Hematology PLT: 1001.8 ± 408.1 ×10^9/L
[2]; administration before stimulation, P<0.05
  Effect on enhanced pause (Penh) values compared to the model group: significantly reduce
[2]; methacholine 0 mg/mL
  Enhanced pause (Penh) value: 0.86 ± 0.31
[2]; methacholine 6.25 mg/mL
  Enhanced pause (Penh) value: 1.79 ± 0.45
[2]; methacholine 12.5 mg/mL
  Enhanced pause (Penh) value: 2.94 ± 0.66
JAK1 JH2 pseudokinase
  IC50: 9.74 nM
